Experimental findings from patent US20150289512A1, “METHOD FOR PROMOTING PLANT GROWTH” (SUMITOMO CHEMICAL COMPANY, LIMITED, priority 2012, published 2015) are described below.

Some results are limits rather than exact numbers.

Assay type in all cases: in vivo
Test [1] deals with Rice (variety: Nipponbare). Description: Test Example 1: promotion of root growth by hydroponics of rice, 10 ppm. The note with it: hydroponic solution containing the test compound at 10 ppm, average of 4 or 5 individuals; for change in vivo at 10 ppm: Oryza sativa, read-out: Relative value of length of seminal root (%-untreated control plot). The protocol:
(§1) Test for Evaluating Promotion of Root Growth by Hydroponics of Rice
(§2) Rice (variety: Nipponbare)
Rice seeds were soaked in a 1% aqueous sodium hypochlorite solution for 10 minutes, then soaked in a 70% ethanol solution for surface sterilization, and then washed with distilled water. The sterilized seeds were soaked in a hydroponic solution containing the test compound described above at 10 ppm and incubated in a dark place for 3 days at 28° C. to perform treatment for hastening germination.
Thereafter, 30 ml of hydroponic solution containing the test compound at 10 ppm was dispensed in a plastic tube (diameter of 20 mm×height of 113 mm) of which the side was covered with cardboard to block light. A float prepared using a styrene board and vinyl mesh was floated, and the rice seeds that had undergone the treatment for hastening germination were placed on the float on the surface of the hydroponic solution. The seeds were cultivated for 3 days at 26° C., an illuminance of 4,000 lux of the top surface of the tube, a humidity of 50%, and a day length of 16 hours.
(§3) The nursery plants of rice obtained after culturing were measured in terms of the length of seminal root by using WinRHIZO system (manufactured by Regent Instruments Inc). For each test plot, an average of the measured values of the seminal root of 4 or 5 individuals was determined.

Test [2] deals with Rice (variety: Nipponbare). Description: Test Example 2: promotion of root growth by hydroponics of rice, 1 ppm. The settings on record: hydroponic solution containing the test compound at 1 ppm, average of 4 or 5 individuals; for change in vivo at 1 ppm: Oryza sativa, read-out: Relative value of length of seminal root (%-untreated control plot). Here is the method:
as §1, §2
A DMSO solution, which contained one of the compounds 1, 3, 11, 12, 14, 15, 17, 21, 28, 30, 33, 34, 35, 36, 37, 38, 40, 41, 43, 44, 45, 46, 47, 49, 50, 51, 52, 53, 54, 55, 56, 61, 62, 63, 65, 67, 68, 69, 70, 73, 74, 75, 76, 77, 80, 82, 83, 85 and 86 of the present invention at a concentration of 10,000 ppm, was added to Hoagland hydroponic solution (Hoagland and Arnon, California Agricultural Experiment Station 1950 Circular 347 pp. 34) of ¼-fold concentration at a volume ratio of 1/10,000. In this manner, hydroponic solutions containing one of the compounds 1, 3, 11, 12, 14, 15, 17, 21, 28, 30, 33, 34, 35, 36, 37, 38, 40, 41, 43, 44, 45, 46, 47, 49, 50, 51, 52, 53, 54, 55, 56, 61, 62, 63, 65, 67, 68, 69, 70, 73, 74, 75, 76, 77, 80, 82, 83, 85 and 86 of the present invention at 1 ppm were prepared respectively. As an untreated control plot, a hydroponic solution obtained by adding DMSO to Hoagland hydroponic solution of ¼-fold concentration at a volume ratio of 1/10,000 was used. Rice seeds were soaked in a 1% aqueous sodium hypochlorite solution for 10 minutes, then soaked in a 70% ethanol solution for surface sterilization, and then washed with distilled water. The sterilized seeds were soaked in a hydroponic solution containing the test compound described above at 1 ppm and incubated in a dark place for 3 days at 28° C. to perform treatment for hastening germination.
Thereafter, 30 ml of hydroponic solution containing the test compound at 1 ppm was dispensed in a plastic tube (diameter of 20 mm×height of 113 mm) of which the side was covered with cardboard to block light. A float prepared using a styrene board and vinyl mesh was floated, and the rice seeds that had undergone the treatment for hastening germination were placed on the float on the surface of the hydroponic solution. The seeds were cultivated for 3 days at 26° C., an illuminance of 4,000 lux of the top surface of the tube, a humidity of 50%, and a day length of 16 hours.
The nursery plants of rice obtained after cultivation were measured in terms of the length of seminal root by using WinRHIZO system (manufactured by Regent Instruments Inc). For each test plot, an average of the measured values of the seminal root of 4 or 5 individuals was determined.

The subject of the next test is Nicotiana benthamiana. Description: Test Example 4: growth promotion under low-temperature stress by hydroponics of Nicotiana benthamiana, 10 ppm. The settings on record: 10 ppm in medium, low-temperature stress 7 days at 1.5±1.0° C., green leaf area 3 days later, equation (1). Here is the method:
Test for Evaluating Growth Promotion Under Low-Temperature Stress by Hydroponics of Nicotiana benthamiana
A DMSO solution, which contained one of the compounds 1, 8, 9, 13, 18, 19, 22, 23, 29, 32, 33, 34, 39, 40, 41, 43, 44, 51, 53, 54, 55, 56, 58, 60, 62, 63, 64, 65, 67, 69, 71, 73, 74, 75, 77, 79, 82, 83 and 86 of the present invention at a concentration of 10,000 ppm, was prepared. The DMSO solution of the compound of the present invention was added at a volume ratio of 1/1,000 to the Murashige•Scoog medium of a ½-fold concentration (a medium containing 2.3 g of mixed salts for the Murashige•Scoog medium (manufactured by Wako Pure Chemical Industries, Ltd.), 200 mg of Myo-inositol (manufactured by Sigma-Aldrich Co. LLC.), 2 mg of nicotinic acid (manufactured by Wako Pure Chemical Industries, Ltd.), 2 mg of pyridoxine hydrochloride (manufactured by Wako Pure Chemical Industries, Ltd.), 20 mg of thiamine hydrochloride (manufactured by Wako Pure Chemical Industries, Ltd.), 20 g of sucrose (manufactured by Wako Pure Chemical Industries, Ltd.), and 1 g of MES (manufactured by DOJINDO LABORATORIES) per 1 L of water and having pH adjusted to 5.8), thereby preparing a medium containing the compound of the present invention at a concentration of 10 ppm.
Seeds of Nicotiana benthamiana were seeded in the 5 μL of the medium and cultured overnight at 22° C. Thereafter, 45 μL of the medium containing the compound of the present invention at a concentration of 10 ppm was added thereto, and the seeds are cultivated for 7 days at 22° C., an illuminance of 4,000 lux, and a day length of 16 hours, and the nursery plants raised from the Nicotiana benthamiana were treated with the compound. Moreover, instead of the above medium, a test plot, which was obtained by performing the same treatment by using a medium prepared by adding DMSO to the Murashige•Scoog medium of ½-fold concentration at a volume ratio of 1/1,000, was used as a control plot not treated with the compound.
The nursery plants of the Nicotiana benthamiana treated with the compound were subjected to low-temperature treatment by being cultivated for 7 days at 1.5±1.0° C., an illuminance of 2,000 lux, and a day length of 16 hours.
The nursery plants of the Nicotiana benthamiana having undergone the low-temperature stress treatment were cultivated for 3 days at 22° C., an illuminance of 4,000 lux, and a day length of 16 hours. Thereafter, the area of green leaf was quantified by Scanalyzer HTS (manufactured by LemnaTec GmbH). Moreover, the value of the control plot not treated with the compound that had not yet been subjected to the low-temperature stress treatment was measured in the same manner. A value of a relative leaf area was calculated based on the following equation (1), and if the value of a relative leaf area was 5 or greater, the compound was evaluated to have a mitigating effect. As a result of the evaluation, it was confirmed that when the plant was treated with one of the compounds 1, 8, 9, 13, 18, 19, 22, 23, 29, 32, 33, 34, 39, 40, 41, 43, 44, 51, 53, 54, 55, 56, 58, 60, 62, 63, 64, 65, 67, 69, 71, 73, 74, 75, 77, 79, 82, 83 and 86 of the present invention at 10 ppm, the value of a relative leaf area was 5 or greater, compared to the area of green leaf of the control plot not treated with compound. Accordingly, it was confirmed that the treatment using the compound of the present invention brings about a growth promotion effect.
Relative leaf area=100*(a green area of a plot treated with the compound of the present invention−a green area of a control plot not treated with the compound of the present invention)/(a green area of a control plot not treated with the compound of the present invention that has not yet been subjected to low-temperature stress treatment−a green area of a control plot not treated with the compound of the present invention) Equation (1): […]

The test system of test [3] is Rice (variety: Nipponbare). Description: Test Example 3: promotion of root growth by hydroponics of rice, 0.1 ppm. The settings on record: Oryza sativa, hydroponic solution containing the test compound at 0.1 ppm, average of 4 or 5 individuals, read-out: Relative value of length of seminal root (%-untreated control plot). The protocol:
as §1, §2
A DMSO solution, which contained one of the compounds 2, 6, 7, 16, 20, 33, 34, 36, 37, 38, 40, 41, 43, 44, 45, 46, 47, 48, 50, 51, 52, 53, 54, 55, 56, 61, 64, 67, 68, 71, 72, 73, 74, 75, 76, 79, 80, 81 and 83 of the present invention at a concentration of 1,000 ppm, was added to Hoagland hydroponic solution (Hoagland and Arnon, California Agricultural Experiment Station 1950 Circular 347 pp. 34) of ¼-fold concentration at a volume ratio of 1/10,000. In this manner, hydroponic solutions containing one of the compounds 2, 6, 7, 16, 20, 33, 34, 36, 37, 38, 40, 41, 43, 44, 45, 46, 47, 48, 50, 51, 52, 53, 54, 55, 56, 61, 64, 67, 68, 71, 72, 73, 74, 75, 76, 79, 80, 81 and 83 of the present invention at 0.1 ppm were prepared respectively. As an untreated control plot, a hydroponic solution obtained by adding DMSO to Hoagland hydroponic solution of ¼-fold concentration at a volume ratio of 1/10,000 was used.
Rice seeds were soaked in a 1% aqueous sodium hypochlorite solution for 10 minutes, then soaked in a 70% ethanol solution for surface sterilization, and then washed with distilled water. The sterilized seeds were soaked in a hydroponic solution containing the test compound described above at 0.1 ppm and incubated in a dark place for 3 days at 28° C. to perform treatment for hastening germination.
Thereafter, 30 ml of hydroponic solution containing the test compound at 0.1 ppm was dispensed in a plastic tube (diameter of 20 mm×height of 113 mm) of which the side was covered with cardboard to block light. A float prepared using a styrene board and vinyl mesh was floated, and the rice seeds that had undergone the treatment for hastening germination were placed on the float on the surface of the hydroponic solution. The seeds were cultivated for 3 days at 26° C., an illuminance of 4,000 lux of the top surface of the tube, a humidity of 50%, and a day length of 16 hours.
as §3

Take `COc1ccc(NC(=O)c2cc3cc(C(F)(F)F)ccc3[nH]2)c(OC)c1` [Compound 10, N-(2,4-dimethoxyphenyl)-5-trifluoromethylindole-2-carboxamide]: in test [1], the change in vivo at 10 ppm was greater than 5%.

`O=C(O)c1cc2cccc(C(F)(F)F)c2[nH]1` [Compound 11]: in test [2], the “Relative value of length of seminal root (%-untreated control plot)” value (shortened to “Relative value … (%-untreated control plot)”) was greater than 5%.

In the case of `CCOC(=O)c1cc2cccc(C(F)(F)F)c2[nH]1` [Compound 12], the “Relative value … (%-untreated control plot)” value in test [2] is greater than 5%.

For the molecule `COC(=O)c1cc2ccccc2[nH]1` [Compound 13], the “Relative value … (%-untreated control plot)” value in test [1] is greater than 5%.

Take `Cn1c(C(=O)O)cc2ccccc21` [Compound 14]: the “Relative value … (%-untreated control plot)” value in test [2] is given as greater than 5%.

Regarding `COC(=O)c1cc2ccccc2n1C` [Compound 15], the change in vivo at 1 ppm in test [2] is greater than 5%.

Consider `O=C(O)c1nc2ccccc2[nH]1` [Compound 18], for which the change in vivo at 10 ppm in test [1] was greater than 5%. Also, the relative leaf area at 10 ppm in the test on Nicotiana benthamiana was no less than 5%.

As to `COC(=O)c1nc2ccccc2[nH]1` [Compound 19], in test [1], the “Relative value … (%-untreated control plot)” value is greater than 5%.

On to `COC(=O)c1nc2ccc(C(F)(F)F)cc2n1C` [Compound 25, methyl 1-methyl-6-trifluoromethylbenzimidazole-2-carboxylate], for which the change in vivo at 10 ppm in test [1] was greater than 5%.

Consider `COC(=O)c1nc2cccnc2n1C` [Compound 26, methyl 3-methyl-3H-imidazo[4,5-b]pyridine-2-carboxylate], for which the change in vivo at 10 ppm in test [1] is greater than 5%.

Turning to `COC(=O)c1oc2ccccc2c1O` [Compound 35], in test [2], the change in vivo at 1 ppm was greater than 5%. The change in vivo at 10 ppm in test [1] was greater than 5%.

Consider `COC(=O)c1oc2ccccc2c1N(C(=O)C(F)(F)F)C(=O)C(F)(F)F` [Compound 38], for which, in test [2], the change in vivo at 1 ppm was greater than 5%. Moreover, in test [1], the change in vivo at 10 ppm was greater than 5%. The change in vivo at 0.1 ppm in test [3] was greater than 5%.

With `CCOC(=O)c1cc2ccc(C(F)(F)F)cc2o1` [Compound 46], the change in vivo at 1 ppm in test [2] was greater than 5%. Besides, the change in vivo at 10 ppm in test [1] was greater than 5%. Further, in test [3], the change in vivo at 0.1 ppm is greater than 5%.

In the case of `O=C(O)c1cc2ccc(C(F)(F)F)cc2o1` [Compound 47], the change in vivo at 1 ppm in test [2] is greater than 5%. Besides, the change in vivo at 10 ppm in test [1] was greater than 5%. The change in vivo at 0.1 ppm in test [3] is greater than 5%.

For the molecule `Nc1c(C(=O)O)oc2ccc(C(F)(F)F)cc12` [Compound 49], the change in vivo at 1 ppm in test [2] is greater than 5%. Also, the change in vivo at 10 ppm in test [1] was greater than 5%.

Regarding `COC(=O)c1oc2ccccc2c1NS(=O)(=O)c1ccccc1` [Compound 61], the change in vivo at 1 ppm in test [2] is greater than 5%. Further, the change in vivo at 10 ppm in test [1] was greater than 5%. Besides, in test [3], the change in vivo at 0.1 ppm is greater than 5%.

Consider `O=C(Oc1ccccc1)c1oc2ccc(C(F)(F)F)cc2c1C(F)(F)F` [Compound 72], for which the change in vivo at 0.1 ppm in test [3] is greater than 5%.
